Reference: US9655875B2, “Method of treating or preventing tumors using 1-(alkylsulfinyl)-2-isothiocyanatoalkyl-1-alkene” (BEIJING UNIVERSITY OF CHEMICAL TECHNOLOGY, priority 2013, dated 2017)
pIC50: −log10 of the molar value. Where two headings read alike, the source gives them in different places. Blank lines part the entries; values can stand above or below the molecule they belong to.

How the values were obtained:
[1] = tested on: human breast carcinoma cell line MCF-7; experiment: Inhibition rate at 10 μM versus chemotherapeutic drugs, MCF-7 (MTT); format: cell-based; conditions: MCF7, MCF-7, 10 μM of drug
Source text: (§1) As a drug for target therapy, the erlotinib is applicable to a third-line treatment of locally advanced or metastatic non-small cell lung cancer when two or more than two chemotherapies are failed. Currently, the gemcitabine is clinically utilized as the drug of the first-line therapy in treating advanced non-small cell lung cancer and the metastatic breast cancer. […] 1. Experimental cell lines and related chemical reagents: sources and cultivation of the human lung adenocarcinoma cells A549, the human lung squamous carcinoma cell line H460, the human breast carcinoma cell line MCF-7 are described in the above. […] Then the 96-well plates were transferred into the incubator (37° C., 5% CO2) for culture. […] The anti-tumor effects of the above drugs were measured by the MTT assay. The number of viable cells in the negative control groups at 0 hr was taken as a basis to calculate the anti-tumor effects.

[2] = tested on: Human Peripheral Blood Mononuclear Cell (PBMC); experiment: Toxicity on peripheral blood mononuclear cells (MTT); format: cell-based; conditions: for Absorbance 490 nm, replicate 1 / Absorbance 490 nm, replicate 2 / Absorbance 490 nm, replicate 3 / Absorbance 490 nm, replicate 4 / Mean value (absorbance) / Cell viability (%): 24 hrs, MTT; for Cell viability (%): relative to negative control
Protocol: General operations: normal peripheral blood cells were isolated by Ficoll to obtain mononuclear cells. The mononuclear cells were rinsed by the PBS for three times, and added with IMDM+10% FBS to prepare suspensions. […] The suspensions were then inoculated into 96-well plates, with each hole containing 25 thousands cells per 100 μL of the culture medium, and cultured overnight at 37° C.
Treatment: because the proliferation of the PBMCs is very limited and the PBMCs quickly enter a decline phase. Thus, the cell viability was measured by the MTT assay after 24 hrs of culture. […] The group where PBMCs were treated by the sterile deionized water was selected as the negative control group.
1. Experimental cells: normal peripheral blood cells were isolated by Ficoll to obtain mononuclear cells. The mononuclear cells were rinsed by the PBS for three times, added with IMDM+10% FBS to prepare suspensions, […].
2. […] Then the 96-well plates were transferred into an incubator at 37° C. for culture. […] After another 24 hrs of cultivation, 20 μL of MTT was added to each hole, and the plates were incubated for 3 hrs in the incubator (37° C., 5% CO2). Solution in each hole was then removed and replaced by 150 μL of DMSO.

rat cardiomyocytes = conditions: for Relative ratio of ATP/total protein, Mean value (%) / Relative ratio of ATP/total protein, replicate 1 / Relative ratio of ATP/total protein, replicate 2 / Relative ratio of ATP/total protein, replicate 3: both, SD, rat
Protocol: General operations: 1-2 day old neonatal SD rats (female or male) were selected and cardiomyocytes were isolated in sterile condition. […] The cardiotoxicity of the above drugs were represented by a ratio of ATP/total protein. […] The group where […] were treated by the sterile deionized water was selected as the negative control group.
1. Experimental cells: 1-2 day old neonatal SD rats (female or male) were selected and sterilized. Then ventricular muscles were collected and digested by trypsin to prepare cardiomyocyte suspensions. The suspensions were cultured in the incubator (37° C., 5% CO2), and primary cardiomyocytes were cultured by differential adhesion.
2. […] After another 6 hrs of cultivation, the culture solution in each hole was replaced by the normal culture solution not containing any drugs, and incubated for 42 hrs in the incubator (37° C., 5% CO2). Solution in each hole was then removed, and cells therein were rinsed by the PBS for three times, digested by the trypsin, and gathered into two parts. One part of the cells was utilized to measure the ATP level by the reporter gene assay, and the other part of the cells was utilized to measure the cellular protein concentration by BAC assay. The ratio of ATP (ng) to the protein concentration (μg) was calculated, and the ratio of each experimental group is divided by the ratio of the contrast group to obtain the relative ratio of ATP/total protein, experimental results were listed in Table 4.

[3] = tested on: human lung adenocarcinoma cells A549; experiment: Inhibition rate at 10 μM versus chemotherapeutic drugs, A549 (MTT); format: cell-based; conditions: A549, 10 μM of drug
Source text: as §1

[4] = tested on: human lung squamous carcinoma cell line H460; experiment: Inhibition rate at 10 μM versus chemotherapeutic drugs, H460 (MTT); format: cell-based; conditions: NCI-H460, H460, 10 μM of drug
Source text: as §1

[5] = tested on: human lung adenocarcinoma cells A549; experiment: MTT growth inhibition of A549 cells (IC50); format: cell-based; conditions: 48 hrs of treatment
Protocol: (§2) 2. […] Solution in each hole was then removed and replaced by 150 μL of DMSO.

[6] = tested on: human lung squamous carcinoma cells H460; experiment: MTT growth inhibition of H460 cells (IC50); format: cell-based; conditions: NCI-H460, 48 hrs of treatment
Protocol: as §2

[7] = tested on: human pancreatic cancer cells PANC-1; experiment: cells; format: cell-based; conditions: 48 hrs of treatment, MTT, read-out: IC50 on the growth of the PANC-1 cells
Protocol: as §2

[8] = tested on: human breast cancer cells MCF-7; experiment: MTT growth inhibition of MCF-7 cells (IC50); format: cell-based; conditions: MCF7, 48 hrs of treatment
Protocol: as §2

[9] = tested on: human liver cancer cells HepG2; experiment: MTT growth inhibition of HepG2 cells (IC50); format: cell-based; conditions: 48 hrs of treatment
Protocol: as §2

[10] = tested on: human cervical cancer cells HeLa; experiment: MTT growth inhibition of HeLa cells (IC50); format: cell-based; conditions: 48 hrs of treatment
Protocol: as §2

[11] = tested on: human lung squamous carcinoma cells H460 xenograft; experiment: H460 xenograft tumor growth in nude mice; format: in vivo; conditions: 75 mg/kg oral, three times each week
Protocol: 1.1 Preparation of experimental animals: 30 nude mice with equal numbers of females and males were fed in normal conditions in the laboratory for between 3 and 5 days.
Preparation of H460 cells: H460 tumor cells were normally cultured, and diluted using the PBS so as to prepare a suspension of tumor cells having a concentration of 7.5×10^6 tumor cells per milliliter.
1.3 Inoculation of tumor cells: the suspension of the tumor cells was fully shaken and 0.2 mL of the suspension was then sucked by a sterile syringe having a capacity of 1 mL. The tumor cells were then inoculated into armpits of the nude mice via subcutaneous injection. The inoculated mice were then fed for between 2 and 3 days in normal conditions. When the tumor tissue grew to a size with a long axis of approximately 3 mm and a short axis of approximately 2 mm, all the nude mice having the tumor tissues were randomly divided into three groups, which were utilized in subsequent administration experiments.
2.1 Control group: five male mice and five female mice having tumor tissues were orally administered with ultrapure water for three times each week (respectively at Monday, Wednesday, and Friday afternoons), and the administered volume was 0.3 mL for each time.
3.2. Acquisition of sizes of tumor tissues in the nude mice: the sizes of the tumor tissues in the nude mice were measured three times per week (respectively at Monday, Wednesday, and Friday afternoons). An electronic vernier caliper was utilized to measure the long axis and the short axis of the tumor tissues, and an accuracy of the data was 0.01 mm.
3.4 Finish time of the experiments: when the tumor tissues in the nude mice of the control group reach an average size of 1000 mm^3 (Volume=long axis×short axis 2×0.5236), the weights and the sizes of the tumor tissues of the nude mice were recorded, and then the experiments were stopped and the nude mice were treated.
3.5 Treatment of nude mice when finishing the experiments: the nude mice were killed, arranged according to different groups, and photographed. Six representative mice were selected from each group and photographed. Then the tumor tissues were respectively isolated, weighed, placed at corresponding positions, and photographed.

[12] = contrast chemotherapeutic drugs, 10 μM (other concentrations)

Compound: O=c1[nH]cc(F)c(=O)[nH]1 [5-FU, 5-fluorouracil]
- inhibition at 10 µM [1]: 15.8%
- Absorbance 490 nm, replicate 1 [2, 12]: 0.493
- Absorbance 490 nm, replicate 2 [2, 12]: 0.484
- Absorbance 490 nm, replicate 3 [2, 12]: 0.525
- Absorbance 490 nm, replicate 4 [2, 12]: 0.461
- Mean value (absorbance) [2, 12]: 0.491
- Cell viability (%) [2, 12]: 61.4%

- Relative ratio of ATP/total protein, Mean value (%) (rat cardiomyocytes; 10 μM): 46.97%
- Relative ratio of ATP/total protein, replicate 1 (rat cardiomyocytes; 10 μM): 47.3%
- Relative ratio of ATP/total protein, replicate 2 (rat cardiomyocytes; 10 μM): 43.1%
- Relative ratio of ATP/total protein, replicate 3 (rat cardiomyocytes; 10 μM): 50.5%
Compound: COc1cccc2c1C(=O)c1c(O)c3c(c(O)c1C2=O)C[C@@](O)(C(=O)CO)C[C@@H]3O[C@H]1C[C@H](N)[C@H](O)[C@H](C)O1 [Adriamycin, adriamycin]
- Absorbance 490 nm, replicate 1 [2, 12]: 0.482
- Absorbance 490 nm, replicate 2 [2, 12]: 0.482
- Absorbance 490 nm, replicate 3 [2, 12]: 0.496
- Absorbance 490 nm, replicate 4 [2, 12]: 0.530
- Mean value (absorbance) [2, 12]: 0.498
- Cell viability (%) [2, 12]: 62.3%
- Toxicity on the cardiomyocytes (rat cardiomyocytes): obvious toxicity on the cardiomyocytes

Compound: C#Cc1cccc(Nc2ncnc3cc(OCCOC)c(OCCOC)cc23)c1 [Erlotinib, erlotinib]
- inhibition at 10 µM [3]: 30.3%
- inhibition at 10 µM [4]: 33.1%

Compound: Nc1ccn([C@@H]2O[C@H](CO)[C@@H](O)C2(F)F)c(=O)n1 [Gemcitabine, gemcitabine]
- inhibition at 10 µM [3]: 6.9%
- inhibition at 10 µM [4]: 4.3%
- inhibition at 10 µM [1]: 40.1%

Compound: CC(=O)O[C@H]1C(=O)[C@@]2(C)[C@H]([C@H](OC(=O)c3ccccc3)[C@]3(O)C[C@H](OC(=O)[C@H](O)[C@@H](NC(=O)c4ccccc4)c4ccccc4)C(C)=C1C3(C)C)[C@]1(OC(C)=O)CO[C@@H]1C[C@@H]2O [Paclitaxel, paclitaxel]
- inhibition at 10 µM [3]: 28.8%
- inhibition at 10 µM [4]: 17.3%
- inhibition at 10 µM [1]: 89.6%
- Absorbance 490 nm, replicate 1 [2, 12]: 0.712
- Absorbance 490 nm, replicate 2 [2, 12]: 0.743
- Absorbance 490 nm, replicate 3 [2, 12]: 0.683
- Absorbance 490 nm, replicate 4 [2, 12]: 0.650
- Mean value (absorbance) [2, 12]: 0.697
- Cell viability (%) [2, 12]: 87.2%

- pIC50 [5]: 4.83
- pIC50 [6]: 4.46
- pIC50 [7]: 5.17
- pIC50 [8]: 4.71
- pIC50 [9]: 4.32
- pIC50 [10]: 4.59
- Relative ratio of ATP/total protein, Mean value (%) (rat cardiomyocytes; 10 μM): 89.87%
- Relative ratio of ATP/total protein, replicate 1 (rat cardiomyocytes; 10 μM): 90.0%
- Relative ratio of ATP/total protein, replicate 2 (rat cardiomyocytes; 10 μM): 88.2%
- Relative ratio of ATP/total protein, replicate 3 (rat cardiomyocytes; 10 μM): 91.4%
- Relative ratio of ATP/total protein, Mean value (%) (rat cardiomyocytes; 30 μM): 83.33%
- Relative ratio of ATP/total protein, replicate 1 (rat cardiomyocytes; 30 μM): 85.1%
- Relative ratio of ATP/total protein, replicate 2 (rat cardiomyocytes; 30 μM): 83.3%
- Relative ratio of ATP/total protein, replicate 3 (rat cardiomyocytes; 30 μM): 81.6%
- Relative ratio of ATP/total protein, Mean value (%) (rat cardiomyocytes; 50 μM): 76.03%
- Relative ratio of ATP/total protein, replicate 1 (rat cardiomyocytes; 50 μM): 77.5%
- Relative ratio of ATP/total protein, replicate 2 (rat cardiomyocytes; 50 μM): 76.7%
- Relative ratio of ATP/total protein, replicate 3 (rat cardiomyocytes; 50 μM): 73.9%
Compound: C[S+]([O-])CCCCN=C=S (centres unmarked) [Sulforaphane, 1-isothiocyanato-4-(methysulfinyl)-butane]
- Tumor volume on 1st day ([11]; day 1): 30.55 mm^3
- Tumor volume on 3rd day ([11]; day 3): 78.81 mm^3
- Tumor volume on 6st day ([11]; day 6): 257.8812 mm^3
- Tumor volume on 8th day ([11]; day 8): 389.6022 mm^3
- Tumor volume on 10th day ([11]; day 10): 552.7308 mm^3
- Absorbance 490 nm, replicate 1 ([2]; 10 μM): 0.702
- Absorbance 490 nm, replicate 2 ([2]; 10 μM): 0.633
- Absorbance 490 nm, replicate 3 ([2]; 10 μM): 0.705
- Absorbance 490 nm, replicate 4 ([2]; 10 μM): 0.593
- Mean value (absorbance) ([2]; 10 μM): 0.658
- Cell viability (%) ([2]; 10 μM): 82.4%
- Absorbance 490 nm, replicate 1 ([2]; 30 μM): 0.655
- Absorbance 490 nm, replicate 2 ([2]; 30 μM): 0.616
- Absorbance 490 nm, replicate 3 ([2]; 30 μM): 0.58
- Absorbance 490 nm, replicate 4 ([2]; 30 μM): 0.628
- Mean value (absorbance) ([2]; 30 μM): 0.620
- Cell viability (%) ([2]; 30 μM): 77.6%
- Absorbance 490 nm, replicate 1 ([2]; 50 μM): 0.663
- Absorbance 490 nm, replicate 2 ([2]; 50 μM): 0.621
- Absorbance 490 nm, replicate 3 ([2]; 50 μM): 0.610
- Absorbance 490 nm, replicate 4 ([2]; 50 μM): 0.610
- Mean value (absorbance) ([2]; 50 μM): 0.626
- Cell viability (%) ([2]; 50 μM): 78.4%
- Effect on the proliferation of the PBMCs ([2]; Table 3 summary): certain effect on the proliferation of the cells
